Key:
[1] = Human ingestion of DHA in studies in support of the invention; assay type: in vivo; conditions: approximately 800 mg DHA daily
Method: The average dietary intake of DHA (10-60 mg/day) in the American diet is relatively low in comparison to intake in countries where fish or fish products comprise higher percentages of the diet. […] Generally, ranges of about 10-10,000 mg, or more specifically, about 50-2000 mg, or 100-1000 mg will-be preferred. […] Appropriate dosages of other polyunsaturated fatty acids can be estimated with reference to this study, based on known safe ingestion levels, or may be determined empirically, with the guidance provided herein.

[2] = 3.6 gm DHA per day ingested by humans; cited from earlier work

## CC/C=C\C/C=C\C/C=C\C/C=C\C/C=C\C/C=C\CCC(=O)O [DHA, all-cis 4,7,10,13,16,19-docosahexaenoic acid]
[1]
  adverse effects: no apparent adverse effects
[2]
  toxicities: no apparent toxicities
